In BigSolDB 2.1:

Cc1[nH]nc2cc([N+](=O)[O-])ccc12
solubility (mole fraction)
Conditions	in ethanol	in n-propanol	in water
278.15 K	0.00471	0.0051	2.06e-05
283.15 K	0.00539	0.00574	2.7e-05
288.15 K	0.00619	0.00682	3.52e-05
293.15 K	0.0073	0.00793	4.67e-05
298.15 K	0.00866	0.00901	6.15e-05
303.15 K	0.0102	0.0103	7.91e-05
308.15 K	0.0118	0.0118	9.98e-05
313.15 K	0.0137	0.0133	0.000123
318.15 K	0.016	0.0149	0.000151
323.15 K	0.019	0.017	0.000182
328.15 K	0.022	0.0194	0.000222
